Measurements published in article PMC4506051, “Pharmacokinetic Profiles of Active Ingredients and Its Metabolites Derived from Rikkunshito, a Ghrelin Enhancer, in Healthy Japanese Volunteers: A Cross-Over, Randomized Study” (PLoS ONE, 2015).

Key:
[1] = Exploratory trial: plasma concentration of rikkunshito ingredients after single oral rikkunshito 7.5 g; assay type: in vivo
In short: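 Healthy volunteers took a single oral rikkunshito dose of 7.5 g. Heparinized forearm blood was drawn at 0, 0.5, 1, 2, 4 and 8 h, with urine pooled pre-dose, 0–4 h and 4–8 h. Analytes were quantified in plasma by LC–MS/MS with internal standards, after solid-phase extraction and, where applied, 2 h β-glucuronidase treatment at 37°C.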

[2] = Exploratory trial: ingredients in β-glucuronidase (enzyme)-treated plasma; assay type: in vivo, human; conditions: in vivo
Method: (§1) In the first exploratory trial, 20-mL blood samples were collected from the cutaneous vein in the subjects’ forearm via a blood sampling tube that contained heparin at 0 (preadministration), 0.5, 1, 2, 4, and 8 h after a single oral administration of rikkunshito (Lot E24652). The dose of rikkunshito used in this trial was 7.5 g/day, which is the clinical daily dose, to widely explore rikkunshito-derived ingredients that enter the blood. Along with plasma, urine samples were collected at three points: between dinner and bedtime (preadministration), between 0 and 4 h after administration, and between 4 and 8 h after administration. The blood was immediately centrifuged at 1700 ×g for 10 min to obtain plasma. Plasma and urine fractions were stored at −80°C or lower until analysis.
(§2) For quantification of 30 ingredients other than atractylodin and synephrine, 25 µL of standard solution or methanol was added to 500 µL plasma or urine samples followed by mixing. Atractylenolide III or digoxin (IS) solution (50 μL) was added to the solutions followed by mixing. For urine, 400 µL of blank plasma was added to the solutions. Ammonium acetate solution (100 mM, 100 or 400 µL) was added to the solutions followed by mixing. For enzymatic treatment, plasma and urine samples were incubated with β-glucuronidase (100 units in 100 mM ammonium acetate) for 2 h at 37°C. A solid-phase cartridge (OASIS HLB, 30 mg/1cc, Waters) was conditioned with methanol and 10 mM ammonium acetate solution, and the samples were loaded onto the cartridge. The cartridge was washed water : methanol (9:1, v/v), and 1.5 mL of methanol and 30 µL of propylene glycol were added to the cartridge to elute the analytes. The mixtures were dried at 25°C under a stream of nitrogen gas. Furthermore, 100 μL of 10 mM ammonium acetate : methanol (8:2, v/v) was added to the dried samples followed by mixing and sonication. The solutions were filtered (0.22 µm) and followed by injection into the LC–MS/MS system. […] Those analytical conditions are summarized in S2 Table and S3 Table.

[3] = Exploratory trial: amount of rikkunshito ingredients in urine; assay type: in vivo, human
In short: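 Subjects took single oral 7.5 g rikkunshito; urine collected pre-dose and 0–4 h and 4–8 h post-dose, stored at −80 °C or lower. Synephrine quantified by LC–MS/MS after plate cleanup with erythromycin IS; other ingredients after β-glucuronidase (2 h, 37 °C) and HLB solid-phase extraction.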

[4] = Exploratory trial: ingredients in β-glucuronidase (enzyme)-treated urine; assay type: in vivo, human; conditions: human, in vivo
Method: as §1, §2

[5] = Stability of ingredients in gastric pH solution (pH 1.2, 37°C); assay type: physicochemical
Method: Rikkunshito gradually dissolved in acidic solution (pH 1.2) at 37°C, and the concentration of atractylodin after adding 0.25, 0.5, 1, and 2 h was measured by gas chromatography–mass spectrometry.

ghrelin secretion = conditions: cited from earlier work
5-HT2BR = test system: 5-HT2BR; parameters: method as in PMID 18439428; conditions: cited from earlier work
5-HT2CR = test system: 5-HT2CR; parameters: method as in PMID 18439428; conditions: cited from earlier work
[6] = test system: cisplatin-induced anorexia model; conditions: cited from earlier work
[7] = of the ingredient in the formulation; summary table, reference not given; cited from earlier work
[8] = Formation of ingredients derived from rikkunshito in formulation, blood, and urine (S11 Table summary); conditions: after rikkunshito administration, per ingredient in the formulation; for Formation of ingredients: form found in Urine: BQL = below the quantification limit
[9] = oral administration at a dose of 4.0 mg/kg

COc1ccc([C@@H]2CC(=O)c3c(O)cc(O)cc3O2)cc1O [Hesperetin]
Plasma concentration at all time points ([1]; 0–8 h, rikkunshito 7.5 g, untreated plasma, BQL = below the quantification limit): BQL
Cmax ([2]; human): 0.799 ng/mL
concentration at 2 h ([2]; human): 0.227 ± 0.264 ng/mL
concentration at 4 h ([2]; human): 0.799 ± 0.408 ng/mL
concentration at 8 h ([2]; human): 0.307 ± 0.289 ng/mL
Plasma concentration in enzyme-treated plasma, 0 h [2]: BQL
Plasma concentration in enzyme-treated plasma, 0.5 h [2]: BQL
Plasma concentration in enzyme-treated plasma, 1 h [2]: BQL
Amount in urine, Pre ([3]; human, in vivo): 213 ± 390 ng
Amount in urine, 0–4 h ([3]; human, in vivo, po): 462 ± 418 ng
Amount in enzyme-treated urine, 0–4 h [4]: 7130 ± 9290 ng
Amount in enzyme-treated urine, 4–8 h [4]: 56750 ± 37530 ng
Amount in enzyme-treated urine, Pre [4]: 4290 ± 7690 ng
Increase of urine concentration after β-glucuronidase treatment compared with before treatment [4]: more than 10 fold
Stability in gastric pH solution, Quantitative value ([5]; 0.5 h, pH 1.2): 4.38 ng/mL
Stability in gastric pH solution, Quantitative value ([5]; 1 h, pH 1.2): 4.36 ng/mL
Stability in gastric pH solution, Quantitative value ([5]; 2 h, pH 1.2): 3.90 ng/mL
Known pharmacology activities: ghrelin secretion (ghrelin secretion): Ghrelin secretion promoting activity [14, 15]
5-HT2BR inhibitory/antagonistic activity (5-HT2BR): inhibit
5-HT2CR inhibitory activity (5-HT2CR): inhibit

COc1ccc([C@@H]2CC(=O)c3c(O)cc(O[C@@H]4O[C@H](CO[C@@H]5O[C@@H](C)[C@H](O)[C@@H](O)[C@H]5O)[C@@H](O)[C@H](O)[C@H]4O)cc3O2)cc1O [Hesperidin]
Amount in urine, 0–4 h ([3]; 0–4 h after single oral rikkunshito 7.5 g, mean ± S.D., n = 4): 184 ± 60.5 ng
Amount in urine, 4–8 h ([3]; 4–8 h after single oral rikkunshito 7.5 g, mean ± S.D., n = 4): 68.6 ± 47.9 ng
Amount in urine, Pre ([3]; preadministration (between dinner and bedtime), mean ± S.D., n = 4): 28.9 ± 57.8 ng
Stability in gastric pH solution, Quantitative value ([5]; rikkunshito in acidic solution (pH 1.2) at 37°C, 0.5 h): 2860 ng/mL
Stability in gastric pH solution, Quantitative value ([5]; rikkunshito in acidic solution (pH 1.2) at 37°C, 1 h): 3130 ng/mL
Stability in gastric pH solution, Quantitative value ([5]; rikkunshito in acidic solution (pH 1.2) at 37°C, 2 h): 2570 ng/mL
Appetite following cisplatin administration [6, 9]: improves decreased appetite
Plasma ghrelin concentration following cisplatin administration [6, 9]: inhibits a decrease in plasma ghrelin concentration
Acylated ghrelin level in blood ([6]; oral administration, cisplatin-induced anorexia model): suppressed the decrease of the acylated ghrelin level in blood in a concentration-dependent manner
Metabolite by enterobacterium [7]: Hesperetin
Formation of ingredients: form found in Blood [8]: Conjugate metabolites of hesperetin
Formation of ingredients: form found in Urine [8]: Hesperidin Hesperetin Conjugate metabolites of hesperetin

C[C@@H]1O[C@@H](O[C@H]2[C@H](Oc3cc(O)c4c(c3)O[C@H](c3ccc(O)cc3)CC4=O)O[C@H](CO)[C@@H](O)[C@@H]2O)[C@H](O)[C@H](O)[C@H]1O [Naringin]
Plasma concentration, 0 h ([1]; 0 h (preadministration), single oral rikkunshito 7.5 g, mean ± S.D., n = 4): BQL
Plasma concentration, 0.5 h ([1]; 0.5 h after single oral rikkunshito 7.5 g, mean ± S.D., n = 4): BQL
Plasma concentration, 1 h ([1]; 1 h after single oral rikkunshito 7.5 g, mean ± S.D., n = 4): 0.059 ± 0.0684 ng/mL
Plasma concentration, 2 h ([1]; 2 h after single oral rikkunshito 7.5 g, mean ± S.D., n = 4): BQL
Plasma concentration, 4 h ([1]; 4 h after single oral rikkunshito 7.5 g, mean ± S.D., n = 4): BQL
Plasma concentration, 8 h ([1]; 8 h after single oral rikkunshito 7.5 g, mean ± S.D., n = 4): BQL
Amount in urine, Pre ([3]; human, in vivo): 70.7 ± 69.2 ng
Amount in urine, 0–4 h ([3]; human, in vivo, po): 1030 ± 313 ng
Amount in urine, 4–8 h ([3]; human, in vivo, po): 598 ± 329 ng
Stability in gastric pH solution, Quantitative value ([5]; 0.5 h, pH 1.2): 959 ng/mL
Stability in gastric pH solution, Quantitative value ([5]; 1 h, pH 1.2): 1060 ng/mL
Stability in gastric pH solution, Quantitative value ([5]; 2 h, pH 1.2): 986 ng/mL
Metabolite by enterobacterium [7]: Naringenin (portion)
Formation of ingredients: form found in Blood [8]: Naringin Naringenin Conjugate metabolites of naringenin^a
Formation of ingredients: form found in Urine [8]: Naringin Naringenin
